Test results taken from the supplement of paper PMC9013687.

How the values were obtained:
Danio rerio embryo [1] = conditions: exposure time: 4 dpf
Protocol: (§1)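 Zebrafish embryos (UFZ-OBI strain) were exposed from 2 hpf for 48 h (2 dpf) or 96 h (4 dpf) at 28 °C; spontaneous tail coiling was scored at 25 hpf. Morphological features from automated image analysis (FishInspector), heart rate and locomotor response were fitted with drc models. Quantal endpoints were dichotomised at 2.5 SD from controls and fitted with a log-logistic model; heart rate, pigmentation and STC were normalised to the replicate control mean. Betamethasone was tested as betamethasone dipropionate, diflorasone as diflorasone diacetate.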

Danio rerio embryo [2] = assay: EC10 Yolk sac size_Decrease; higher = less potent; conditions: exposure time: 4 dpf
Protocol: as §1

Danio rerio embryo [3] = assay: EC10 Any effect; higher = less potent; conditions: exposure time: 4 dpf
Protocol: as §1

Danio rerio embryo [4] = assay: EC20 Bladder size_Decrease; higher = less potent; conditions: exposure time: 4 dpf
Protocol: as §1

Danio rerio embryo [5] = assay: EC20 Any effect; higher = less potent; conditions: exposure time: 4 dpf
Protocol: as §1

Danio rerio embryo [6] = assay: EC20 Lack of SB; higher = less potent; conditions: exposure time: 4 dpf
Protocol: as §1

Danio rerio embryo [7] = assay: EC20 Yolk sac size_Decrease; higher = less potent; conditions: exposure time: 4 dpf
Protocol: as §1

Danio rerio embryo [8] = assay: EC10 Pericard size_Increase; higher = less potent; conditions: exposure time: 4 dpf
Protocol: as §1

Danio rerio embryo [9] = assay: EC50 Pericard size_Increase; conditions: exposure time: 4 dpf
Protocol: as §1

Danio rerio embryo [10] = conditions: exposure time: 4 dpf; remark: listed apart in the source
Protocol: as §1

Danio rerio embryo [11] = assay: EC10 Lack of SB; higher = less potent; conditions: exposure time: 4 dpf
Protocol: as §1

Danio rerio embryo [12] = assay: EC50 Yolk sac size_Decrease; conditions: exposure time: 4 dpf
Protocol: as §1

Danio rerio embryo [13] = assay: EC20 Pericard size_Increase; higher = less potent; conditions: exposure time: 4 dpf
Protocol: as §1

Danio rerio embryo [14] = assay: EC50 Bladder size_Decrease; conditions: exposure time: 4 dpf
Protocol: as §1

Danio rerio embryo [15] = assay: spontaneous tail coiling frequency (coils/min/embryo); higher = more spontaneous movement; conditions: 25 hpf
Protocol: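 Spontaneous tail coilings of zebrafish embryos exposed from 2 hpf were recorded at 24-25 hpf in 1-min videos and detected by a KNIME workflow from grey-value variance. Betamethasone was tested as the dipropionate, diflorasone as the diacetate.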

Danio rerio embryo [16] = assay: EC10 Bladder size_Decrease; higher = less potent; conditions: exposure time: 4 dpf
Protocol: as §1

C[C@@H]1C[C@H]2[C@@H]3CCC4=CC(=O)C=C[C@]4(C)[C@@]3(F)[C@@H](O)C[C@]2(C)[C@@]1(O)C(=O)CO [Dexamethasone]
Conditions | EC10 Any effect [µM] | EC10 Bladder size Decrease [µM] | EC10 Lack of SB [µM] | EC10 Pericard size Increase [µM] | EC10 Yolk sac size Decrease [µM] | EC20 Any effect [µM] | EC20 Bladder size Decrease [µM] | EC20 Lack of SB [µM] | EC20 Pericard size Increase [µM] | EC20 Yolk sac size Decrease [µM] | EC50 Any effect [µM] | EC50 Bladder size Decrease [µM] | EC50 Lack of SB [µM] | EC50 Pericard size Increase [µM] | EC50 Yolk sac size Decrease [µM]
Danio rerio embryo [1] | – | – | – | – | – | – | – | – | – | – | – | – | 16.2 | – | –
Danio rerio embryo [2] | – | – | – | – | 2.27 | – | – | – | – | – | – | – | – | – | –
Danio rerio embryo [3] | 1.52 | – | – | – | – | – | – | – | – | – | – | – | – | – | –
Danio rerio embryo [4] | – | – | – | – | – | – | 2.7 | – | – | – | – | – | – | – | –
Danio rerio embryo [5] | – | – | – | – | – | 7.45 | – | – | – | – | – | – | – | – | –
Danio rerio embryo [6] | – | – | – | – | – | – | – | 2.7 | – | – | – | – | – | – | –
Danio rerio embryo [7] | – | – | – | – | – | – | – | – | – | 13.1 | – | – | – | – | –
Danio rerio embryo [8] | – | – | – | 5.95 | – | – | – | – | – | – | – | – | – | – | –
Danio rerio embryo [9] | – | – | – | – | – | – | – | – | – | – | – | – | – | 226 | –
Danio rerio embryo [10] | – | – | – | – | – | – | – | – | – | – | 113 | – | – | – | –
Danio rerio embryo [11] | – | – | 0.944 | – | – | – | – | – | – | – | – | – | – | – | –
Danio rerio embryo [12] | – | – | – | – | – | – | – | – | – | – | – | – | – | – | 259
Danio rerio embryo [13] | – | – | – | – | – | – | – | – | 22.8 | – | – | – | – | – | –
Danio rerio embryo [14] | – | – | – | – | – | – | – | – | – | – | – | 14.3 | – | – | –
Danio rerio embryo [16] | – | 1.02 | – | – | – | – | – | – | – | – | – | – | – | – | –

Danio rerio embryo [15]
Conditions | spontaneous tail coiling frequency
2.5 µM | 2.19
25.5 µM | 3.02
63.7 µM | 2.67
127.4 µM | 3.04
254.8 µM | 2.79
